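The compound was tested at five concentrations on cells cultured in 96-well plates, with a 48-hour exposure period. The concentration for full growth arrest is given as TGI.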
What was measured:
Assay in all cases: NCI tumour cell line growth inhibition, 48 h
786-0 renal = test system: 786-0 renal
A498 renal = test system: A498 renal
A549 NSCLC = test system: A549 NSCLC
ACHN renal = test system: ACHN renal
CAKI-1 renal = test system: CAKI-1 renal
CCRF-CEM leukemia = test system: CCRF-CEM leukemia
COLO 205 colon = test system: COLO 205 colon
DLD-1 colon = test system: DLD-1 colon
DMS 114 small cell lung = test system: DMS 114 small cell lung
DMS 273 small cell lung = test system: DMS 273 small cell lung
DU-145 prostate = test system: DU-145 prostate
EKVX NSCLC = test system: EKVX NSCLC
HCC-2998 colon = test system: HCC-2998 colon
HCT-116 colon = test system: HCT-116 colon
HCT-15 colon = test system: HCT-15 colon
HL-60(TB) leukemia = test system: HL-60(TB) leukemia
HOP-62 NSCLC = test system: HOP-62 NSCLC
HOP-92 NSCLC = test system: HOP-92 NSCLC
HS 578T breast = test system: HS 578T breast
HT29 colon = test system: HT29 colon
IGROV1 ovarian = test system: IGROV1 ovarian
K-562 leukemia = test system: K-562 leukemia
KM12 colon = test system: KM12 colon
KM20L2 colon = test system: KM20L2 colon
LOX IMVI melanoma = test system: LOX IMVI melanoma
LXFL 529 NSCLC = test system: LXFL 529 NSCLC
M14 melanoma = test system: M14 melanoma
M19-MEL melanoma = test system: M19-MEL melanoma
MALME-3M melanoma = test system: MALME-3M melanoma
MCF7 breast = test system: MCF7 breast
MDA-MB-231 breast = test system: MDA-MB-231 breast
MDA-MB-435 = test system: MDA-MB-435
MDA-N = test system: MDA-N
MOLT-4 leukemia = test system: MOLT-4 leukemia
NCI-H226 lung = test system: NCI-H226 lung
NCI-H23 lung = test system: NCI-H23 lung
NCI-H460 lung = test system: NCI-H460 lung
NCI-H522 lung = test system: NCI-H522 lung
NCI/ADR-RES ovarian = test system: NCI/ADR-RES ovarian
OVCAR-3 ovarian = test system: OVCAR-3 ovarian
OVCAR-4 ovarian = test system: OVCAR-4 ovarian
OVCAR-5 ovarian = test system: OVCAR-5 ovarian
OVCAR-8 ovarian = test system: OVCAR-8 ovarian
PC-3 prostate = test system: PC-3 prostate
RPMI-8226 leukemia = test system: RPMI-8226 leukemia
RXF 393 renal = test system: RXF 393 renal
SF-268 CNS = test system: SF-268 CNS
SF-295 CNS = test system: SF-295 CNS
SF-539 CNS = test system: SF-539 CNS
SK-MEL-2 melanoma = test system: SK-MEL-2 melanoma
SK-MEL-28 melanoma = test system: SK-MEL-28 melanoma
SK-MEL-5 melanoma = test system: SK-MEL-5 melanoma
SK-OV-3 ovarian = test system: SK-OV-3 ovarian
SN12C renal = test system: SN12C renal
SNB-19 CNS = test system: SNB-19 CNS
SNB-75 CNS = test system: SNB-75 CNS
SR leukemia = test system: SR leukemia
SW-620 colon = test system: SW-620 colon
T-47D breast = test system: T-47D breast
TK-10 renal = test system: TK-10 renal
U251 CNS = test system: U251 CNS
UACC-257 melanoma = test system: UACC-257 melanoma
UACC-62 melanoma = test system: UACC-62 melanoma
UO-31 renal = test system: UO-31 renal
SNB-78 CNS = test system: SNB-78 CNS
XF 498 CNS = test system: XF 498 CNS
BT-549 breast = test system: BT-549 breast
HOP-18 NSCLC = test system: HOP-18 NSCLC

CNC(=O)N(C)N=NCCCl
TGI (786-0 renal): > 100 µM
TGI (A498 renal): > 100 µM
TGI (A549 NSCLC): > 100 µM
TGI (ACHN renal): > 100 µM
TGI (CAKI-1 renal): > 100 µM
TGI (CCRF-CEM leukemia): > 100 µM
TGI (COLO 205 colon): > 100 µM
TGI (DLD-1 colon): > 100 µM
TGI (DMS 114 small cell lung): > 100 µM
TGI (DMS 273 small cell lung): > 100 µM
TGI (DU-145 prostate): > 100 µM
TGI (EKVX NSCLC): > 100 µM
TGI (HCC-2998 colon): > 100 µM
TGI (HCT-116 colon): > 100 µM
TGI (HCT-15 colon): > 100 µM
TGI (HL-60(TB) leukemia): > 100 µM
TGI (HOP-62 NSCLC): > 100 µM
TGI (HOP-92 NSCLC): > 100 µM
TGI (HS 578T breast): > 100 µM
TGI (HT29 colon): > 100 µM
TGI (IGROV1 ovarian): > 100 µM
TGI (K-562 leukemia): > 100 µM
TGI (KM12 colon): > 100 µM
TGI (KM20L2 colon): > 100 µM
TGI (LOX IMVI melanoma): > 100 µM
TGI (LXFL 529 NSCLC): > 100 µM
TGI (M14 melanoma): > 100 µM
TGI (M19-MEL melanoma): > 100 µM
TGI (MALME-3M melanoma): > 100 µM
TGI (MCF7 breast): > 100 µM
TGI (MDA-MB-231 breast): > 100 µM
TGI (MDA-MB-435): > 100 µM
TGI (MDA-N): > 100 µM
TGI (MOLT-4 leukemia): > 100 µM
TGI (NCI-H226 lung): > 100 µM
TGI (NCI-H23 lung): > 100 µM
TGI (NCI-H460 lung): > 100 µM
TGI (NCI-H522 lung): > 100 µM
TGI (NCI/ADR-RES ovarian): > 100 µM
TGI (OVCAR-3 ovarian): > 100 µM
TGI (OVCAR-4 ovarian): > 100 µM
TGI (OVCAR-5 ovarian): > 100 µM
TGI (OVCAR-8 ovarian): > 100 µM
TGI (PC-3 prostate): > 100 µM
TGI (RPMI-8226 leukemia): > 100 µM
TGI (RXF 393 renal): > 100 µM
TGI (SF-268 CNS): > 100 µM
TGI (SF-295 CNS): > 100 µM
TGI (SF-539 CNS): > 100 µM
TGI (SK-MEL-2 melanoma): > 100 µM
TGI (SK-MEL-28 melanoma): > 100 µM
TGI (SK-MEL-5 melanoma): > 100 µM
TGI (SK-OV-3 ovarian): > 100 µM
TGI (SN12C renal): > 100 µM
TGI (SNB-19 CNS): > 100 µM
TGI (SNB-75 CNS): > 100 µM
TGI (SR leukemia): > 100 µM
TGI (SW-620 colon): > 100 µM
TGI (T-47D breast): > 100 µM
TGI (TK-10 renal): > 100 µM
TGI (U251 CNS): > 100 µM
TGI (UACC-257 melanoma): > 100 µM
TGI (UACC-62 melanoma): > 100 µM
TGI (UO-31 renal): > 100 µM

N#Cc1nc(Nc2cccc3ccccc23)sc1N
TGI (786-0 renal): > 100 µM
TGI (A549 NSCLC): > 100 µM
TGI (ACHN renal): 75.3 µM
TGI (CAKI-1 renal): > 100 µM
TGI (COLO 205 colon): 81.5 µM
TGI (DLD-1 colon): > 100 µM
TGI (DMS 273 small cell lung): > 100 µM
TGI (HCC-2998 colon): 41.2 µM
TGI (HCT-116 colon): > 100 µM
TGI (HCT-15 colon): > 100 µM
TGI (HL-60(TB) leukemia): > 100 µM
TGI (HOP-62 NSCLC): > 100 µM
TGI (HOP-92 NSCLC): 52.3 µM
TGI (HT29 colon): > 100 µM
TGI (IGROV1 ovarian): > 100 µM
TGI (K-562 leukemia): > 100 µM
TGI (KM12 colon): > 100 µM
TGI (KM20L2 colon): > 100 µM
TGI (LOX IMVI melanoma): 33.4 µM
TGI (LXFL 529 NSCLC): > 100 µM
TGI (M14 melanoma): > 100 µM
TGI (M19-MEL melanoma): > 100 µM
TGI (MALME-3M melanoma): > 100 µM
TGI (MOLT-4 leukemia): > 100 µM
TGI (NCI-H226 lung): > 100 µM
TGI (NCI-H23 lung): 47.2 µM
TGI (NCI-H460 lung): > 100 µM
TGI (NCI-H522 lung): 46.4 µM
TGI (OVCAR-3 ovarian): > 100 µM
TGI (OVCAR-4 ovarian): > 100 µM
TGI (OVCAR-5 ovarian): > 100 µM
TGI (OVCAR-8 ovarian): > 100 µM
TGI (RPMI-8226 leukemia): 72 µM
TGI (SF-268 CNS): > 100 µM
TGI (SF-295 CNS): > 100 µM
TGI (SF-539 CNS): 76.6 µM
TGI (SK-MEL-2 melanoma): 79.2 µM
TGI (SK-MEL-28 melanoma): > 100 µM
TGI (SK-OV-3 ovarian): > 100 µM
TGI (SN12C renal): > 100 µM
TGI (SNB-19 CNS): > 100 µM
TGI (SNB-75 CNS): > 100 µM
TGI (SNB-78 CNS): 75.6 µM
TGI (SR leukemia): 27.8 µM
TGI (SW-620 colon): > 100 µM
TGI (TK-10 renal): 76.9 µM
TGI (U251 CNS): 52.9 µM
TGI (UACC-257 melanoma): 41.1 µM
TGI (UACC-62 melanoma): 59 µM
TGI (UO-31 renal): 49 µM
TGI (XF 498 CNS): > 100 µM

CC(CCC=O)CCOCc1ccccc1 (stereo not drawn)
TGI (786-0 renal): > 100 µM
TGI (A498 renal): > 100 µM
TGI (A549 NSCLC): > 100 µM
TGI (ACHN renal): > 100 µM
TGI (BT-549 breast): > 100 µM
TGI (CAKI-1 renal): > 60.8 µM
TGI (CCRF-CEM leukemia): > 84.2 µM
TGI (COLO 205 colon): > 100 µM
TGI (DLD-1 colon): > 100 µM
TGI (DMS 114 small cell lung): > 100 µM
TGI (DMS 273 small cell lung): > 100 µM
TGI (DU-145 prostate): > 100 µM
TGI (EKVX NSCLC): > 100 µM
TGI (HCC-2998 colon): > 100 µM
TGI (HCT-116 colon): > 100 µM
TGI (HCT-15 colon): > 100 µM
TGI (HL-60(TB) leukemia): 45.1 µM
TGI (HOP-18 NSCLC): > 100 µM
TGI (HOP-62 NSCLC): > 100 µM
TGI (HOP-92 NSCLC): > 100 µM
TGI (HS 578T breast): > 100 µM
TGI (HT29 colon): > 100 µM
TGI (IGROV1 ovarian): > 100 µM
TGI (K-562 leukemia): > 100 µM
TGI (KM12 colon): > 100 µM
TGI (KM20L2 colon): > 100 µM
TGI (LOX IMVI melanoma): > 91.2 µM
TGI (LXFL 529 NSCLC): > 100 µM
TGI (M14 melanoma): > 100 µM
TGI (M19-MEL melanoma): > 100 µM
TGI (MALME-3M melanoma): > 100 µM
TGI (MCF7 breast): 22.7 µM
TGI (MDA-MB-231 breast): > 100 µM
TGI (MDA-MB-435): > 100 µM
TGI (MDA-N): > 100 µM
TGI (MOLT-4 leukemia): > 61.6 µM
TGI (NCI-H226 lung): > 100 µM
TGI (NCI-H23 lung): > 100 µM
TGI (NCI-H460 lung): > 100 µM
TGI (NCI-H522 lung): > 100 µM
TGI (NCI/ADR-RES ovarian): > 100 µM
TGI (OVCAR-3 ovarian): > 100 µM
TGI (OVCAR-4 ovarian): > 100 µM
TGI (OVCAR-5 ovarian): > 100 µM
TGI (OVCAR-8 ovarian): > 100 µM
TGI (PC-3 prostate): > 100 µM
TGI (RPMI-8226 leukemia): > 100 µM
TGI (RXF 393 renal): > 100 µM
TGI (SF-268 CNS): > 100 µM
TGI (SF-295 CNS): > 100 µM
TGI (SF-539 CNS): > 100 µM
TGI (SK-MEL-2 melanoma): > 100 µM
TGI (SK-MEL-28 melanoma): > 100 µM
TGI (SK-MEL-5 melanoma): > 46.4 µM
TGI (SK-OV-3 ovarian): > 100 µM
TGI (SN12C renal): > 100 µM
TGI (SNB-19 CNS): > 100 µM
TGI (SNB-75 CNS): > 100 µM
TGI (SNB-78 CNS): > 100 µM
TGI (SR leukemia): > 80.7 µM
TGI (SW-620 colon): > 100 µM
TGI (T-47D breast): > 100 µM
TGI (TK-10 renal): > 100 µM
TGI (U251 CNS): > 100 µM
TGI (UACC-257 melanoma): > 100 µM
TGI (UACC-62 melanoma): > 100 µM
TGI (UO-31 renal): > 100 µM
TGI (XF 498 CNS): > 100 µM

— PubChem BioAssay (NCI)
